# Columns and labels:
# [1] = test system: skin fibroblasts from 30 individuals; assay: Combined score of expression stimulation of 5 genes in fibroblast isolates (FIG. 1); type: cell-based, human; details: 24 hour treatment, atRA 10^-7 M, Matrixyl 1 μM, KappaElastin 1 μM
# Experimental: (§1) Human dermal fibroblasts were grown in DMEM cell culture media containing 10% fetal bovine serum and 1% penicillin/streptomycin (Invitrogen). For all experiments, third-passage fibroblasts were used one day after reaching confluence. […] After 24 hour treatment RNA and protein was isolated and analyzed for the expression of components of ECM and transcriptional regulators.
# (§2) Total RNA from various human tissues was purified using RNAwiz (Ambion, USA) and subjected to subsequent DNase I treatment using the DNA-Free kit (Ambion). Total RNA from cancer cells was purified by using 4PCRmini kit (Ambion). First-strand cDNAs were synthesized with Superscript III reverse transcriptase (Invitrogen, USA) and 5 μg of total RNA using oligo d(T) priming in a final reaction volume of 50 μL
# The cDNA was amplified by PCR using the 2.5 U Hot-Firepol (Solis BioDyne, Estonia) and buffer Yellow (Naxo, Estonia). Reaction was performed in a 10 ul volume, using 0.5 ul cDNA as a template. Following primer sets were designed for this study:
# The combined score of expression stimulation of 5 genes was calculated and blotted for each fibroblast isolate. […] This biological variation provides a good biological rational to use molecular diagnostics for matching cosmetics product and skin cells of specific individual (personalized cosmetics).
# Human dermal fibroblasts [2] = assay: Western blot analysis of protein levels of ECM components after atRA treatment; type: cell-based; details: fold induction (+) or suppression (−) vs control; 10^-7 M, 24 hours
# Experimental: as §1
# Cells were lysed in Cell Disruption Buffer supplied with the Paris kit (Ambion) and protein concentration was determined using Bradford reagent (Pierce). Proteins were separated on 10% SDS-PAAG and transferred into the PVDF membrane (Biorad). […] Signal was detected using ECL reagent (Pierce).
# Human dermal fibroblasts [3] = assay: RT-PCR analysis of mRNA levels of ECM components after atRA treatment; type: cell-based; details: fold induction (+) or suppression (−) vs control; 10^-7 M, 24 hours
# Experimental: as §1, §2
# The cDNA was amplified by PCR using the 2.5 U Hot-Firepol (Solis BioDyne, Estonia) and buffer Yellow (Naxo, Estonia). Reaction was performed in a 10 ul volume, using 0.5 ul cDNA as a template. Following primer sets (Table 21) were designed for this study:
# The thermal cycling protocols were as follows: initial denaturation of template DNA and heat-activation of polymerase (15 min at 95° C.) followed by 40 cycles denaturation (30 sec at 95° C.) annealing (58° C.) and extension (90 sec). PCR products were analysed on a 1% agarose gel. For sequencing, PCR reactions were purified using PCR purification kit (Qiagen, USA) and subcloned into TOPO TA cloning vector. Fragments were sequenced at GATC Biotech sequencing services (Germany).
# [4] = test system: dermal fibroblasts isolated from 17 individuals; assay: Real time RT-PCR of ECM components, nuclear hormone receptors and coregulators in fibroblasts from 17 individuals; type: cell-based, human
# Experimental: Total RNA was extracted from cells using RNA aqueous kit (Ambion, USA). First-strand cDNAs were synthesized with Superscript III reverse transcriptase (Invitrogen, USA) and 1 μg of total RNA using oligo d(T) priming in a final reaction volume of 40 μL.
# Levels of specific mRNAs were measured by real-time RT-PCR using Platinum SYBR Green qPCR SuperMix UDG (Invitrogen) according the protocol on the LightCycler 2.0 (Roche, US). The cycling program steps were: for one cycle 50° C. 2 min, for one cycle 95° C. 2 min and for 45 cycles: 95° C. 10 s, 60° C. 10 s, 72° C. 10 s. All samples were run in triplicates. Results were analyzed with the comparative Ct method (from Applied Biosystems manual; Livak and Schmittgen, 2001). Every sample was normalized for the housekeeping gene GAPDH. Transcript levels in the atRA and TGFb1 treated samples were compared to control samples.
# [5] = fibroblasts from 17 individuals, 1 μM, 24 hours
smiles,measurement,setting,value
"CC1=C(/C=C/C(C)=C/C=C/C(C)=C/C(=O)O)C(C)(C)CCC1 [all trans retinoic acid, all-trans retinoic acid]","combined score of expression stimulation of 5 genes (COL1A1, COL2A1, elastin, proteoglycan, TIMP1) per fibroblast isolate",[1],3 groups of fibroblasts that have different response
same,COL1A1 protein level,Human dermal fibroblasts [2],2 fold
same,COL1A2 protein level,Human dermal fibroblasts [2],2 fold
same,COL2A1 protein level,Human dermal fibroblasts [2],3 fold
same,COL3A1 protein level,Human dermal fibroblasts [2],2 fold
same,COL4A1 protein level,Human dermal fibroblasts [2],1 fold
same,COL4A2 protein level,Human dermal fibroblasts [2],1 fold
same,COL4A3 protein level,Human dermal fibroblasts [2],1 fold
same,COL4A4 protein level,Human dermal fibroblasts [2],1 fold
same,COL5A1 protein level,Human dermal fibroblasts [2],1 fold
same,Elastin ELN protein level,Human dermal fibroblasts [2],2 fold
same,Lysyl oxidase protein level,Human dermal fibroblasts [2],3 fold
same,MMP2 protein level,Human dermal fibroblasts [2],2 fold
same,MMP-11 protein level,Human dermal fibroblasts [2],3 fold
same,decorin protein level,Human dermal fibroblasts [2],4 fold
same,COL1A1 mRNA level,Human dermal fibroblasts [3],2 fold
same,COL1A2 mRNA level,Human dermal fibroblasts [3],4 fold
same,COL2A1 mRNA level,Human dermal fibroblasts [3],5 fold
same,COL3A1 mRNA level,Human dermal fibroblasts [3],2 fold
same,COL4A1 mRNA level,Human dermal fibroblasts [3],1 fold
same,COL4A2 mRNA level,Human dermal fibroblasts [3],3 fold
same,COL4A3 mRNA level,Human dermal fibroblasts [3],2 fold
same,COL4A4 mRNA level,Human dermal fibroblasts [3],1 fold
same,COL7A1 mRNA level,Human dermal fibroblasts [3],2 fold
same,Elastin ELN mRNA level,Human dermal fibroblasts [3],4 fold
same,FBLN5 mRNA level,Human dermal fibroblasts [3],2 fold
same,FN 1 mRNA level,Human dermal fibroblasts [3],1 fold
same,Fibrillin-1 mRNA level,Human dermal fibroblasts [3],1 fold
same,Fibrillin-2 mRNA level,Human dermal fibroblasts [3],1 fold
same,Fibulin-2 mRNA level,Human dermal fibroblasts [3],3 fold
same,Lumican mRNA level,Human dermal fibroblasts [3],1 fold
same,Lysyl oxidase mRNA level,Human dermal fibroblasts [3],8 fold
same,MMP2 mRNA level,Human dermal fibroblasts [3],2 fold
same,MMP7 mRNA level,Human dermal fibroblasts [3],2 fold
same,MMP9 mRNA level,Human dermal fibroblasts [3],2 fold
same,MMP12 mRNA level,Human dermal fibroblasts [3],2 fold
same,MMP13 mRNA level,Human dermal fibroblasts [3],5 fold
same,MMP19 mRNA level,Human dermal fibroblasts [3],1 fold
same,MMP20 mRNA level,Human dermal fibroblasts [3],1 fold
same,MMP-11 mRNA level,Human dermal fibroblasts [3],7 fold
same,TIMP1 mRNA level,Human dermal fibroblasts [3],2 fold
same,TIMP3 mRNA level,Human dermal fibroblasts [3],3 fold
same,TIMP4 mRNA level,Human dermal fibroblasts [3],1 fold
same,aggrecan mRNA level,Human dermal fibroblasts [3],1 fold
same,decorin mRNA level,Human dermal fibroblasts [3],6 fold
same,fibromodulin mRNA level,Human dermal fibroblasts [3],1 fold
same,"variation between individuals of effect on expression of nuclear hormone receptors, compared with co-regulators","[4]; cells treated with atRA, 17 individuals",less variation
same,"CBP expression in RA treatment compared to control, from-to between individuals",[4]; [5],(from −2.15 to 3.17) fold
same,"COL1A1 expression in RA treatment compared to control, from-to between individuals",[4]; [5],(from −6.25 to 3.25) fold
same,"COL1A2 expression in RA treatment compared to control, from-to between individuals",[4]; [5],(from −3.13 to 1.83) fold
same,"COL3A1 expression in RA treatment compared to control, from-to between individuals",[4]; [5],(from −2.28 to 2.89) fold
same,"COL4A1 expression in RA treatment compared to control, from-to between individuals",[4]; [5],(from −3.97 to 2.18) fold
same,"COL5A1 expression in RA treatment compared to control, from-to between individuals",[4]; [5],(from −4.76 to 2.39) fold
same,"COL5A2 expression in RA treatment compared to control, from-to between individuals",[4]; [5],(from −1.41 to 2.94) fold

# Source: patent publication US20080206770A1, “SCREENING METHODS USED TO IDENTIFY COMPOUNDS THAT MODULATE SKIN STROMAL CELLS (FIBROBLASTS) ABILITY TO MODIFY FUNCTION OF EXTRACELLULAR MATRIX” (priority 2007, published 2008)
